Entries after “also recorded” stand apart in the source; their conditions may differ.
Key:
[1] = target: T1, IKK complex (IKKß, IKKα and NEMO) (Homo sapiens, UniProt Q9Y6K9); assay: Co-immunoprecipitation of NEMO with IKKß in 293 cells; format: cell-based; settings: Zinc-5 at 4 hours, Zinc-13 at 1 hour, NBD peptide at 4 hours
T1 construct: analyzed by Western blot for the level of co-precipitated NEMO; endogenous in cells; host or cells: 293 (HEK293) cells
Description: FIG. 8 is a bar graph showing the inhibition of TNFα by NBDA-1 (Zinc-13). […] In addition, we have examined the ability of the compounds to disrupt the IKK complex, comprised of IKKß, IKKα and NEMO.
A non-functional, related compound Zinc-7 had no effect.

Ercc1−/Δ mice [2] = assay: Systemic treatment of Ercc1−/Δ mice, intervertebral disc proteoglycan; format: in vivo, mouse; settings: IP 3× a week, 10 mg/kg for 8 weeks
Experimental: The ability of the compounds to work systemically was also tested. In these experiments, Ercc1^−/Δ mice with accelerated aging (lifespan of 5 months) were treated systemically, 3× a week, by IP injection at a dose of 10 mg/kg for 8 weeks. Since we previously had shown that the NF-κB is a key factor in driving intervertebral disc degenerated, we assessed the effects of treatment on proteoglycan synthesis and content in the discus following treatment.

p-IκBα = assay: Western blot of IκBα phosphorylation after TNF-α; format: cell-based; settings: 10 ng/ml TNF-α, 0, 5 and 10 min, 100 μM compound
Experimental: (§1) To confirm that the NBD mimetics reduce IKK activity, the extent of phosphorylation of the IKK target, IκBα, in response to 10 ng/ml of TNF-α was determined by Western blot at 0, 5 and 10 min after TNF-α stimulation. […] To determine if the mimetics also reduce NF-κB DNA binding activity, electrophoretic mobility shift assay (EMSA) was conducted both in vivo and in vitro.
HEK293 cells grown in a 6-well plate at 1×10^6 cells/well were left untreated or treated with 100 μM of ZINC12909780 or ZINC3369392 for 30 min, followed by 10 ng/ml of TNFα for 0, 5 and 10 min. Cells were then harvested for western blot. Cell lysate was prepared in RIPA buffer (20 mM Tris-HCl (pH 7.5), 150 mM NaCl, 1 mM Na^2EDTA, 1 mM EGTA, 1% NP-40, 1% sodium deoxycholate, 2.5 mM sodium pyrophosphate, 1 mM beta-glycerophosphate, 1 mM Na3VO4, 1 μg/ml leupeptin, 1× protease inhibitor cocktails (sigma) and 1× Halt phosphatase inhibitor cocktail (Thermo)). 30 ug of protein was resolved by MINI-PROTEAN TGX 4-15% SDS-PAGE. Blots were blocked in 5% non-fat milk. Primary antibodies were incubated at 4° C. overnight and secondary antibodies were incubated at room temperature for 1 hour. Anti-p-IκBα (1:1000 CST) and anti-IκBα (1:2000 CST) were used to assess NF-κB activation. Anti-GAPDH (1:5000 CST) was used as a loading control.

NF-κB = assay: EMSA of NF-κB DNA binding in C2C12 cells; format: cell-based, mouse; settings: 200 μM
Experimental: as §1
Cytoplasmic and nuclear fractions were extracted using the NE-PER nuclear and cytoplasmic extraction reagents (ThermoFisher) according to the manufacturer's instructions. The gel shift assay was performed by following the previously described method (41). In brief, 5 μg of nuclear extract was incubated with gel shift binding buffer and an α-^32P-deoxycytodine triphosphate-radiolabeled NF-κB probe for 20 min at room temperature (MP Biomedicals). The oligonucleotide sequences are as follows: NF-κB template, 5′-[…]-3′; NF-κB annealing, 5′-[…]-3′. The reaction product was separated on a 6% non-denaturing polyacrylamide gel.

[3] = Degradation in the presence of serum; format: in vitro ADME; settings: data not shown
Ercc1−/Δ mice [4] = assay: Chronic treatment of Ercc1−/Δ mouse model of accelerated aging with SR12343; format: in vivo
Description: FIG. 41 summarizes the regimen and endpoints for the study of the effects of NBD mimetics on aging using the Ercc1^−/Δ mouse model of accelerated aging
Thus these novel NBD mimetics could be used not only for treatment of inflammatory and degenerative diseases, but also aging.

[5] = tested on: K14-Cre+/−; Ercc1−/fl; Skh1−/− mice; assay: Naked mouse skin photoaging study, topical treatment; format: in vivo
Experimental: Naked mice of strain K14-Cre^+/−; Ercc1^−/fl; Skh1^−/− were treated with SR12343 versus vehicle control, then exposed to UV light for […]. The NBD mimetic SR12343 and SR2460 were tested for their ability to reduce the effects of photoaging in a mouse model. To make analysis of skin aging easier, usually hairless mice are utilized. Previously studies have shown that exposure of the hairless Skh1^−/− mouse to UV results in skin aging over 5 months as measured by skin thickness, elastosis, collagen damage, synthesis and degradation, increased ratio of collagen III to I, increased GAGs, and wrinkles and sagging. To accelerate this photoaging process, we generated a mouse model where Ercc1-dependent DNA repair activity is eliminated in K14 expressing skin cells in the Skh1^−/− mice (K14-Cre^+/−; Ercc1^−/fl; Skh1^−/− mice). In these mice, chronic UV exposure gives rise to evidence of photoaging 6 times faster than in the Skh1^−/− mice, allowing for analysis of skin aging in 2-4 weeks (FIGS. 51 (A, B, and C).
For testing of drugs for effects on photoargng in the K14-Cre^+/−; Ercc1^−/fl; Skh1^−/− mice, the mice are first tattooed to outlined quadrants for drug treatment. The mice were then exposed to UV 3× (total of 1 kJ/m^2/wk) for 4 weeks in a tanning booth. This dose regiment is the equivalent of one year of sun exposure.
A 50 mg/ml solution of SR12343 was then prepared in a DMSO gel for topical application. The SR12343 gel was administered topically 5 times per week and mice exposed to UV 3× per week as indicated. It is important to note that the compound was administered following UV dosing to eliminate any anti-UV effects of the drug. At the midway point and at the end of the experiment, the mice were analyzed using a TEWL Meter for skin thickness, elasticity and hydration. At the time of sacrifice, skin sections are taken for analysis of the extent of cellular senescence by RT-PCR.

T1 sequence (Q9Y6K9 whole entry, one chain of several): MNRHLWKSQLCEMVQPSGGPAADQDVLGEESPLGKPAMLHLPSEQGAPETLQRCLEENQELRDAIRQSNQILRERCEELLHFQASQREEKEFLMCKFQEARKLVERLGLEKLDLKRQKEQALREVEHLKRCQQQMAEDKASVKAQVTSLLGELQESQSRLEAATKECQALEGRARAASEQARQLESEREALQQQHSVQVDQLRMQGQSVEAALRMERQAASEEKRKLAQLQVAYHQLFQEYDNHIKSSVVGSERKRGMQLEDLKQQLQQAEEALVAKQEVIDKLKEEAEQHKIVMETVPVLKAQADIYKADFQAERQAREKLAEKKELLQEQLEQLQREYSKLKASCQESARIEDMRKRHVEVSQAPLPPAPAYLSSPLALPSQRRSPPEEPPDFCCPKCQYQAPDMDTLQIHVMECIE

Compound | level of NEMO co-immunoprecipitated with IKKß [1] | proteoglycan synthesis and content in the intervertebral disc (Ercc1−/Δ mice [2]) | level of phospho-IκBα / phosphorylation of IkB (p-IκBα) | level of phospho-IκBα / phosphorylation of IkB (p-IκBα; listed as Zinc-13) | level of phospho-IκBα / phosphorylation of IkB (p-IκBα; listed as compound 12909780) | TNFα-induced NF-κB DNA binding activity (EMSA) (NF-κB) | degradation in the presence of serum [3] | glycosaminoglycan (GAG) in intervertebral disc nucleus pulposus (Ercc1−/Δ mice [4]) | healthspan (Ercc1−/Δ mice [4]) | clearance of blood glucose (oral glucose tolerance test) (Ercc1−/Δ mice [4]; 15 wk-old mice) | senescence (Ercc1−/Δ mice [4]; 15 wk-old mice) | aging symptoms associated with frailty (Ercc1−/Δ mice [4]; different ages) | overall score of the aging symptoms (Ercc1−/Δ mice [4]; different ages) | body fat percentage (NMR) (Ercc1−/Δ mice [4]; male mice) | forelimb grip strength (Ercc1−/Δ mice [4]; male mice) | overall appearance of the skin, wrinkles ([5]; 50 mg/ml in DMSO gel, topical 5 times per week, UV 3× per week) | skin elasticity ([5]; topical gel, UV-exposed) | skin hydration ([5]; topical gel, UV-exposed) | expression of senescent marker p16 in skin ([5]; topical gel, UV-exposed, RT-PCR) | molecular markers of skin aging and appearance of the skin ([5]; topical treatment)
Nc1ncccc1C(=O)OCC(=O)Nc1ccc(Cl)cc1F [NBDA-1, 2-((4-chloro-2-fluorophenyl)amino)-2-oxoethyl 2-aminonicotinate] | reduced the level of co-immunoprecipitated NEMO; also recorded: disrupt the interaction between IKKß and IKKgamma | increased the proteoglycan content | reduces the level of phospho-IκB | reduced phosphorylation of IkB | mild reduction | significantly decreased TNFα-induced NF-κB DNA binding activity | rapid degradation in the presence of serum | – | – | – | – | – | – | – | – | – | – | – | – | –
O=C(CNc1ccc(Cl)cn1)NCCc1cccc(Br)c1 [SR12343, N-(3-bromophenethyl)-2-((5-chloropyridin-2-yl)amino)acetamide] | – | – | – | – | – | – | – | improves pathology in the intervertebral disc as determined by measuring proteoglycans (GAG) | extension of healthspan | improves clearance of glucose in an oral glucose tolerance test | reduces senescence | reduces the onset of symptoms associated with frailty | reduces the onset of symptoms with chronic treatment | reduces loss of fat in male mice | improves grip strength in male mice | reducing the number and depth of the wrinkles | restores skin elasticity | improved skin hydration | lowered the expression of senescent markers such as p16 | improved molecular markers of skin aging as well as the overall appearance of the skin
